Data as given in the kinase profiling compilation of Christmann-Franck et al. (2016).

Experiments:
Assay in all cases: radiometric filter-binding kinase assay, Kinase HotSpot
Conditions in all cases: compound 0.5 µM; ATP 10 µM
PRKG2 (human) = PRKG2 (human) (UniProt Q13237)
PBK (human) = PBK (human) (UniProt Q96KB5)
NEK7 (human) = NEK7 (human) (UniProt Q8TDX7)
MAP3K8 (human) = MAP3K8 (human) (UniProt P41279)
TSSK1B (human) = TSSK1B (human) (UniProt Q9BXA7)
MAP4K5 (human) = MAP4K5 (human) (UniProt Q9Y4K4)
PLK2 (human) = PLK2 (human) (UniProt Q9NYY3)
Chain of PLK2 (human) (Q9NYY3 whole entry, looked up): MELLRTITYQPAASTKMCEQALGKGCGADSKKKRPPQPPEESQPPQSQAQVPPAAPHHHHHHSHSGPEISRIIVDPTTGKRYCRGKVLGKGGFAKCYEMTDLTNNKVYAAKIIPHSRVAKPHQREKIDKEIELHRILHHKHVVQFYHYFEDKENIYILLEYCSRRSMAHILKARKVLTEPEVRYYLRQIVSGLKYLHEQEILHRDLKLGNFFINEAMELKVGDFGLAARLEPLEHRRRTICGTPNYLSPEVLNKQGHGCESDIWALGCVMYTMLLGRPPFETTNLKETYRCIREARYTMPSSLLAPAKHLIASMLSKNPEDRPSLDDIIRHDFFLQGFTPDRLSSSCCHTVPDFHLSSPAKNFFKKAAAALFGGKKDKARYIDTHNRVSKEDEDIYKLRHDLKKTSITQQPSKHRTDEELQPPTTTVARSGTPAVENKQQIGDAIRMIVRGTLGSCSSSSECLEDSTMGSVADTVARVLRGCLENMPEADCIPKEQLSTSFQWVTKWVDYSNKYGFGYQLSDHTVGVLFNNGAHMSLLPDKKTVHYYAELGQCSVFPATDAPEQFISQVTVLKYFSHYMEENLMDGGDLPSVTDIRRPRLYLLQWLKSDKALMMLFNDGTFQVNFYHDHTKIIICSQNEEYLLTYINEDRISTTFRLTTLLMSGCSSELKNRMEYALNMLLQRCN

RPS6KA2 KD1 KD2 (human) = RPS6KA2 KD1 KD2 (human) (UniProt Q15349)
FLT3 (human) = FLT3 (human) (UniProt P36888)
CAMK1D (human) = CAMK1D (human) (UniProt Q8IU85)
Chain of CAMK1D (human) (Q8IU85 whole entry, looked up): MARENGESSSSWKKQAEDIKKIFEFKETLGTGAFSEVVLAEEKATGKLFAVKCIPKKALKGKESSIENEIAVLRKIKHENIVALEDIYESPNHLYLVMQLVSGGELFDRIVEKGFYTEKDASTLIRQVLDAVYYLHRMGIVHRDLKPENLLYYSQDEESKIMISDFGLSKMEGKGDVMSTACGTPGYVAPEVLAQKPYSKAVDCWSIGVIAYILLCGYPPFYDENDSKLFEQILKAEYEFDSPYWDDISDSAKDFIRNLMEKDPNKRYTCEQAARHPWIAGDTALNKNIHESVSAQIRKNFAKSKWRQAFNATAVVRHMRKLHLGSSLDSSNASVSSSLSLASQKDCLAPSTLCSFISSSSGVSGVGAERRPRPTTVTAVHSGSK

CSNK1G1 (human) = CSNK1G1 (human) (UniProt Q9HCP0)
MARK3 (human) = MARK3 (human) (UniProt P27448)
PAK1 (human) = PAK1 (human) (UniProt Q13153)
Chain of PAK1 (human) (Q13153 whole entry, looked up): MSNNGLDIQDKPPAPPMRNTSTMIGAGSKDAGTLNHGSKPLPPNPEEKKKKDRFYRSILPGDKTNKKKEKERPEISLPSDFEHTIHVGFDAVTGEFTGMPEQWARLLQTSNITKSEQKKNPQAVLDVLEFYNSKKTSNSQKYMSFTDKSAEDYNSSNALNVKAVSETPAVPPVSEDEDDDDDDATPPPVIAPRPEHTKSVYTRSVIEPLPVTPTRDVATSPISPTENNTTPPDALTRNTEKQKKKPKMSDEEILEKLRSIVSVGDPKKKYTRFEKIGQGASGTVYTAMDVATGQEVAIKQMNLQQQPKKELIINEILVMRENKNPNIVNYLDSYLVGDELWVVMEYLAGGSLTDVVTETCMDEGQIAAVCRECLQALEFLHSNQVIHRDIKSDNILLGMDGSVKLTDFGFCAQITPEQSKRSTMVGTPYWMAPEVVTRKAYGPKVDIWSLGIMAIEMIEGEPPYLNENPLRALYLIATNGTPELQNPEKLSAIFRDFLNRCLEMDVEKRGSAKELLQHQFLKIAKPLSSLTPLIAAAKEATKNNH

DAPK1 (human) = DAPK1 (human) (UniProt P53355)
PRKCG (human) = PRKCG (human) (UniProt P05129)
TEK (human) = TEK (human) (UniProt Q02763)
Chain of TEK (human) (Q02763 whole entry, looked up): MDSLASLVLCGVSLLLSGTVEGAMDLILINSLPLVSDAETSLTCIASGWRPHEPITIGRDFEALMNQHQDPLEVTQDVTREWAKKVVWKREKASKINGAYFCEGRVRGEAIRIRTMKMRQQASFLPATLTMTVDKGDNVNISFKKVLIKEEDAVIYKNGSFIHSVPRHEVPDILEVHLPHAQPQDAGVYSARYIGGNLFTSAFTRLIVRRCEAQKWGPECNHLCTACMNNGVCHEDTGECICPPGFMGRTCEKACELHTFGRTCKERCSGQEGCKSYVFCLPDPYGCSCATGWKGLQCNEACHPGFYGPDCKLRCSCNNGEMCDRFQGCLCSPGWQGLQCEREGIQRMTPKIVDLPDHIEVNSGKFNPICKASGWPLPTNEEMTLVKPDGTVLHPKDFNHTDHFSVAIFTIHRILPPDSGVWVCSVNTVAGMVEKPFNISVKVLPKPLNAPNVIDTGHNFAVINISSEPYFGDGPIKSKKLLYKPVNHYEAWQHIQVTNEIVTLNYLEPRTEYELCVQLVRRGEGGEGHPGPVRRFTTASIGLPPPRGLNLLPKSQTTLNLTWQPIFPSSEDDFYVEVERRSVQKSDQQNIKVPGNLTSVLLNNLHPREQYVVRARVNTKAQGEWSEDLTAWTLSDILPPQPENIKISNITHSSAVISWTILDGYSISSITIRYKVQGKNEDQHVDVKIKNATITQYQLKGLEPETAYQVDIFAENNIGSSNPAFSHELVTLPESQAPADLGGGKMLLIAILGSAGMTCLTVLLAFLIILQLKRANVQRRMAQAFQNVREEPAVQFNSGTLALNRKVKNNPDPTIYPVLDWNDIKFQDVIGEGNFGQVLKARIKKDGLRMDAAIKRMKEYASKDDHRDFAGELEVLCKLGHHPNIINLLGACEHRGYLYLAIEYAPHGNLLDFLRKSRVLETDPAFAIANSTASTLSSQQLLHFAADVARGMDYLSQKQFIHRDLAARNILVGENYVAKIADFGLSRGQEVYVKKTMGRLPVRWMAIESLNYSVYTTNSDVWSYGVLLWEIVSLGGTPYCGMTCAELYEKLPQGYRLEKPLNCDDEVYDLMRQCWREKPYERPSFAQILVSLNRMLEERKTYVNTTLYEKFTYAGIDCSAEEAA

HCK (human) = HCK (human) (UniProt P08631)
Chain of HCK (human) (P08631 whole entry, looked up): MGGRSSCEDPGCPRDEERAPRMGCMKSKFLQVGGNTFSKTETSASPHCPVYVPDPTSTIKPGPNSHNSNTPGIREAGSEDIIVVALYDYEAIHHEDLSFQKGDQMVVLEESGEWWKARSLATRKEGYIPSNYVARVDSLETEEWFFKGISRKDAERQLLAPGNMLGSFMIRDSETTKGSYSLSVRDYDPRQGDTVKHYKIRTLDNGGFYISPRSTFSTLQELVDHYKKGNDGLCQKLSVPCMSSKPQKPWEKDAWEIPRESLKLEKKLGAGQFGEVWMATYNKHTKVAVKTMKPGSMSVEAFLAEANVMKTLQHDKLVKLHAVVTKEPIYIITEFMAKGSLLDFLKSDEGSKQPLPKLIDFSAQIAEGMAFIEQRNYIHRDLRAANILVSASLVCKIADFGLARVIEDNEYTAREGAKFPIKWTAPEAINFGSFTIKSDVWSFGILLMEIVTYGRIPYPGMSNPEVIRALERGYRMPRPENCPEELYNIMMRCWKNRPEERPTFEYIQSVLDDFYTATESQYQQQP

TGFBR1 (human) = TGFBR1 (human) (UniProt P36897)
Chain of TGFBR1 (human) (P36897 whole entry, looked up): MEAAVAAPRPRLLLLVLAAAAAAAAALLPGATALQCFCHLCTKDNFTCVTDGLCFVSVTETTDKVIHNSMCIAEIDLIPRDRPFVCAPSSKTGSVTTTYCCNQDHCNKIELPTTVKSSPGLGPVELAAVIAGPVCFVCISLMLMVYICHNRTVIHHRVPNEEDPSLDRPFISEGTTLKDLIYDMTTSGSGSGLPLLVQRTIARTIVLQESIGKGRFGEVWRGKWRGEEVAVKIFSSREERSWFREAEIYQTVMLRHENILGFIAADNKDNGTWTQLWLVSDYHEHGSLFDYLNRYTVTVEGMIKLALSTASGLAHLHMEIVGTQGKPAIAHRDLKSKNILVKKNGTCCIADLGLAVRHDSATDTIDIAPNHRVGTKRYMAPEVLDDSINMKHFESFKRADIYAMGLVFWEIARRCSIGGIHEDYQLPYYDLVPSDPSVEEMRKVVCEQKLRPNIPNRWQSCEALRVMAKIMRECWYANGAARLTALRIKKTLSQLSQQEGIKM

STK11 (human) = STK11 (human) (UniProt Q15831)
AXL (human) = AXL (human) (UniProt P30530)
PRKCE (human) = PRKCE (human) (UniProt Q02156)
CLK1 (human) = CLK1 (human) (UniProt P49759)
JAK3 JH1 JH2 (human) = JAK3 JH1 JH2 (human) (UniProt P52333)
MAP3K9 (human) = MAP3K9 (human) (UniProt P80192)
STK33 (human) = STK33 (human) (UniProt Q9BYT3)
PAK3 (human) = PAK3 (human) (UniProt O75914)
ACVR1B (human) = ACVR1B (human) (UniProt P36896)
SRPK2 (human) = SRPK2 (human) (UniProt P78362)
ULK1 (human) = ULK1 (human) (UniProt O75385)
FYN (human) = FYN (human) (UniProt P06241)
AURKB (human) = AURKB (human) (UniProt Q96GD4)
SRPK3 (human) = SRPK3 (human) (UniProt Q9UPE1)
IGF1R (human) = IGF1R (human) (UniProt P08069)
TNK2 (human) = TNK2 (human) (UniProt Q07912)
TXK (human) = TXK (human) (UniProt P42681)
MAPKAPK2 (human) = MAPKAPK2 (human) (UniProt P49137)
INSR (human) = INSR (human) (UniProt P06213)
MAP3K5 (human) = MAP3K5 (human) (UniProt Q99683)
IKBKE (human) = IKBKE (human) (UniProt Q14164)
CDK9 CCNT1 (human) = CDK9 CCNT1 (human) (UniProt P50750+O60563)
CDK9 CCNK (human) = CDK9 CCNK (human) (UniProt O75909+P50750)
CDK5 CDK5R1 p35 (human) = CDK5 CDK5R1 p35 (human) (UniProt Q00535+Q15078)

Chain of PBK (human) (Q96KB5 whole entry, looked up): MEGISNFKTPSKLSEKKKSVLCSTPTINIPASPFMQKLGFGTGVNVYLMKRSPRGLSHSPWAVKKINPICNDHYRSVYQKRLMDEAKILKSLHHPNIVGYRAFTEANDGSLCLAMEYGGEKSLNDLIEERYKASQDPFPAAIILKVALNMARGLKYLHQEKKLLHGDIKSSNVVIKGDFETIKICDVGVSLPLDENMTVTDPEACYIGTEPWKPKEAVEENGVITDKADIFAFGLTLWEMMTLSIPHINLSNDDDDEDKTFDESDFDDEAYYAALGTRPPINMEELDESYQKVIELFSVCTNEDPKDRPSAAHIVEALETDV
Chain of PRKG2 (human) (Q13237 whole entry, looked up): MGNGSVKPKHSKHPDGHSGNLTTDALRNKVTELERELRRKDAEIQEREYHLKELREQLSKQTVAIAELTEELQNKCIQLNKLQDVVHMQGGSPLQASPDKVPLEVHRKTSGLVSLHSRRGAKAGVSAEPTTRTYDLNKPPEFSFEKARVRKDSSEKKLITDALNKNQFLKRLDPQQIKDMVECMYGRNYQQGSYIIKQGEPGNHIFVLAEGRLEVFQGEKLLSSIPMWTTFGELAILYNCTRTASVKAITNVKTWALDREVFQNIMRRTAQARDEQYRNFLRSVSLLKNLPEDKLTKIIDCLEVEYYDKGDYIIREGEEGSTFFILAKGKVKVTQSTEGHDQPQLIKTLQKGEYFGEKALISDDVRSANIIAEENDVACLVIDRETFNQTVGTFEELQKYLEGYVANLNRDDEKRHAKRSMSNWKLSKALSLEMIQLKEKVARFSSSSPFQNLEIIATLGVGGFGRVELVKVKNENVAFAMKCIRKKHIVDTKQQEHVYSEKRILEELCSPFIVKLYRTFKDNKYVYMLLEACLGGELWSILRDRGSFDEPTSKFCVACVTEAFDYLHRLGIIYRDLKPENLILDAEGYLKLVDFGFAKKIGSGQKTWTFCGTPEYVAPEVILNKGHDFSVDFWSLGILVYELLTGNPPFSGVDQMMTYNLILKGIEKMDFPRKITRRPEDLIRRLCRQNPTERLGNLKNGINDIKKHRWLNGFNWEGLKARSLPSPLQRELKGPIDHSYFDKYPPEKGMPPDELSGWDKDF

CCCCc1c(-c2ccc(O)cc2)[nH]c2nccnc12
residual activity (PRKG2 (human)): 92.6%
residual activity (PBK (human)): 75.6%
residual activity (NEK7 (human)): 111%
residual activity (MAP3K8 (human)): 111%
residual activity (TSSK1B (human)): 62%
residual activity (MAP4K5 (human)): 65.3%
residual activity (PLK2 (human)): 83.9%
residual activity (RPS6KA2 KD1 KD2 (human)): 87.7%
residual activity (FLT3 (human)): 45.3%
residual activity (CAMK1D (human)): 96.9%
residual activity (CSNK1G1 (human)): 93.1%
residual activity (MARK3 (human)): 88.2%
residual activity (PAK1 (human)): 81.4%
residual activity (DAPK1 (human)): 85.3%
residual activity (PRKCG (human)): 95.1%
residual activity (TEK (human)): 97%
residual activity (HCK (human)): 91.1%
residual activity (TGFBR1 (human)): 100%
residual activity (STK11 (human)): 33.5%
residual activity (AXL (human)): 103%
residual activity (PRKCE (human)): 107%
residual activity (CLK1 (human)): 97.9%
residual activity (JAK3 JH1 JH2 (human)): 92.2%
residual activity (MAP3K9 (human)): 37.3%
residual activity (STK33 (human)): 80.8%
residual activity (PAK3 (human)): 97.7%
residual activity (ACVR1B (human)): 117%
residual activity (SRPK2 (human)): 110%
residual activity (ULK1 (human)): 82.5%
residual activity (FYN (human)): 62.1%
residual activity (AURKB (human)): 66.9%
residual activity (SRPK3 (human)): 98.6%
residual activity (IGF1R (human)): 87.3%
residual activity (TNK2 (human)): 49.9%
residual activity (TXK (human)): 65%
residual activity (MAPKAPK2 (human)): 92.6%
residual activity (INSR (human)): 99.6%
residual activity (MAP3K5 (human)): 99.3%
residual activity (IKBKE (human)): 88.3%
residual activity (CDK9 CCNT1 (human)): 45.9%
residual activity (CDK9 CCNK (human)): 42.8%

COc1cc2c(N3CCN(C(=O)Nc4ccc(OC(C)C)cc4)CC3)ncnc2cc1OCCCN1CCCCC1
residual activity (PRKG2 (human)): 105%
residual activity (PBK (human)): 98%
residual activity (NEK7 (human)): 93.4%
residual activity (MAP3K8 (human)): 93.2%
residual activity (TSSK1B (human)): 96.8%
residual activity (MAP4K5 (human)): 87.6%
residual activity (PLK2 (human)): 99.8%
residual activity (RPS6KA2 KD1 KD2 (human)): 98.6%
residual activity (CDK5 CDK5R1 p35 (human)): 99.4%
residual activity (CAMK1D (human)): 110%
residual activity (CSNK1G1 (human)): 98%
residual activity (MARK3 (human)): 103%
residual activity (PAK1 (human)): 107%
residual activity (DAPK1 (human)): 103%
residual activity (PRKCG (human)): 90.9%
residual activity (TEK (human)): 99.6%
residual activity (HCK (human)): 93.2%
residual activity (TGFBR1 (human)): 102%
residual activity (STK11 (human)): 104%
residual activity (AXL (human)): 99%
residual activity (PRKCE (human)): 104%
residual activity (CLK1 (human)): 72.4%
residual activity (JAK3 JH1 JH2 (human)): 99.8%
residual activity (MAP3K9 (human)): 108%
residual activity (STK33 (human)): 91.1%
residual activity (PAK3 (human)): 105%
residual activity (ACVR1B (human)): 101%
residual activity (SRPK2 (human)): 103%
residual activity (ULK1 (human)): 92.1%
residual activity (FYN (human)): 94.8%
residual activity (AURKB (human)): 89.6%
residual activity (SRPK3 (human)): 102%
residual activity (IGF1R (human)): 97.7%
residual activity (TNK2 (human)): 92.7%
residual activity (TXK (human)): 105%
residual activity (MAPKAPK2 (human)): 100%
residual activity (INSR (human)): 99.3%
residual activity (MAP3K5 (human)): 96.6%
residual activity (IKBKE (human)): 96.2%
residual activity (CDK9 CCNT1 (human)): 100%
residual activity (CDK9 CCNK (human)): 107%
